In patent US5502035A, “N-terminus modified analogs of LHRH” (Tap Holdings Inc., priority 1994, dated 1996):
Non-standard residues stand in square brackets, D forms with d. Residues, ends and D or L forms follow the SMILES beside them. Groups on a side chain read outwards from the residue. *: point of attachment. Shikimoyl = O=C(C1=C[C@@H](O)[C@@H](O)[C@H](O)C1)*; X4 = O=C([C@@H](O)[C@@H](O)[C@H](O)[C@@H](O)CO)*; dPhe(4-Cl) = N[C@H](Cc1ccc(Cl)cc1)C(=O)O; d1Nal = N[C@H](Cc1cccc2ccccc12)C(=O)O; d2Nal = N[C@H](Cc1ccc2ccccc2c1)C(=O)O; NMeY = CN[C@@H](Cc1ccc(O)cc1)C(=O)O; NMeF = CN[C@@H](Cc1ccccc1)C(=O)O; hArg = N=C(N)NCCCC[C@H](N)C(=O)O; d3Pal = N[C@H](Cc1cccnc1)C(=O)O; NMeL = CN[C@@H](CC(C)C)C(=O)O; Nicotinoyl = O=C(c1cccnc1)*; Aze = O=C(O)[C@@H]1CCN1

Each compound was assayed against T1, LHRH (Rattus norvegicus, UniProt P30969) (assay: in vitro test for LHRH antagonist potency (pA2)). Settings: negative logarithm of the antagonist concentration required to shift the response curve produced by the agonist leuprolide to two-fold higher concentration.
T1 construct: endogenous in cells; host or cells: rat pituitary cells (own knowledge of the cited Haviv 1989 method)
T1 sequence (P30969 1-327): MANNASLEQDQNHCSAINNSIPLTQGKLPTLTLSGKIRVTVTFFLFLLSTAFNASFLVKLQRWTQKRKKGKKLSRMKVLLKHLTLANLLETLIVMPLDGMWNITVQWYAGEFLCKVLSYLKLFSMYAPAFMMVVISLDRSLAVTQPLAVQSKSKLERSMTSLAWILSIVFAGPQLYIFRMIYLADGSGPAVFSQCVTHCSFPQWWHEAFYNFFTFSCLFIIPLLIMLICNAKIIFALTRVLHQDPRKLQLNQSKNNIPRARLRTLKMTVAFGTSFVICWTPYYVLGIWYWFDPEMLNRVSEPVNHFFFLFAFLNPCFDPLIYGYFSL
Assay type: cell-based
Summary of the method: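 Antagonism read against the agonist leuprolide on rat LHRH receptor; value is pA2, the −log of antagonist concentration that doubles the agonist concentration needed for the same response.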
`CC(C)C[C@H](NC(=O)[C@@H](CCCCNC(=O)C1=C[C@@H](O)[C@@H](O)[C@H](O)C1)NC(=O)[C@H](Cc1ccc(O)cc1)N(C)C(=O)[C@H](CO)NC(=O)[C@@H](Cc1cccc2ccccc12)NC(=O)[C@@H](Cc1ccc(Cl)cc1)NC(=O)[C@@H](Cc1ccc2ccccc2c1)NC(=O)CNC(=O)C1=C[C@@H](O)[C@@H](O)[C@H](O)C1)C(=O)N[C@@H](CCCNC(=N)N)C(=O)N1CCC[C@H]1C(=O)N[C@H](C)C(N)=O` [Example 16, N-Shikimyl-Gly-D2Nal-D4ClPhe-D 1Nal-Ser-NMeTyr-DLys(Shik)-Leu-Arg-Pro-DAlaNH2] (Shikimoyl-G[d2Nal][dPhe(4-Cl)][d1Nal]S[NMeY][dK](Shikimoyl)LRP[dA]-NH2) was tested, and the Kb was 28.8 pM.
`CC(C)C[C@H](NC(=O)[C@@H](CCCCNC(=O)C1=C[C@@H](O)[C@@H](O)[C@H](O)C1)NC(=O)[C@H](Cc1ccccc1)N(C)C(=O)[C@H](CO)NC(=O)[C@@H](Cc1cccnc1)NC(=O)[C@@H](Cc1ccc(Cl)cc1)NC(=O)[C@@H](Cc1ccc2ccccc2c1)NC(=O)CNC(=O)C1=C[C@@H](O)[C@@H](O)[C@H](O)C1)C(=O)N[C@@H](CCCNC(=N)N)C(=O)N1CCC[C@H]1C(=O)N[C@H](C)C(N)=O` [Example 17, N-Shikimyl-Gly-D2Nal-D4ClPhe-D3Pal-Ser-NMePhe-DLys(Shik)-Leu-Arg-Pro-DAlaNH2] (Shikimoyl-G[d2Nal][dPhe(4-Cl)][d3Pal]S[NMeF][dK](Shikimoyl)LRP[dA]-NH2) gave a Kb of 11.2 pM.
`CC[C@H](C)[C@H](NC(=O)[C@@H](CCCCNC(=O)C1=C[C@@H](O)[C@@H](O)[C@H](O)C1)NC(=O)[C@H](Cc1ccc(O)cc1)N(C)C(=O)[C@H](CO)NC(=O)[C@@H](Cc1cccnc1)NC(=O)[C@@H](Cc1ccc(Cl)cc1)NC(=O)[C@@H](Cc1ccc2ccccc2c1)NC(=O)CNC(=O)C1=C[C@@H](O)[C@@H](O)[C@H](O)C1)C(=O)N[C@@H](CCCNC(=N)N)C(=O)N1CCC[C@H]1C(=O)N[C@H](C)C(N)=O` [Example 18a, N-Shikimyl-Gly-D2Nal-D4ClPhe-D3Pal-Ser-NMeTyr-DLys(Shik)-Ile-Arg-Pro-DAlaNH2] (Shikimoyl-G[d2Nal][dPhe(4-Cl)][d3Pal]S[NMeY][dK](Shikimoyl)IRP[dA]-NH2) was tested, and the Kb was 16.6 pM.
In the case of `CC(C)C[C@@H](C(=O)N[C@@H](CCCNC(=N)N)C(=O)N1CCC[C@H]1C(=O)N[C@H](C)C(N)=O)N(C)C(=O)[C@@H](CCCCNC(=O)C1=C[C@@H](O)[C@@H](O)[C@H](O)C1)NC(=O)[C@H](Cc1ccc(O)cc1)N(C)C(=O)[C@H](CO)NC(=O)[C@@H](Cc1cccnc1)NC(=O)[C@@H](Cc1ccc(Cl)cc1)NC(=O)[C@@H](Cc1ccc2ccccc2c1)NC(=O)CNC(=O)C1=C[C@@H](O)[C@@H](O)[C@H](O)C1` [Example 18b, N-Shikimyl-Gly-D2Nal-D4ClPhe-D3Pal-Ser-NMeTyr-DLys(Shik)-NMeLeu-Arg-Pro-DAlaNH2] (Shikimoyl-G[d2Nal][dPhe(4-Cl)][d3Pal]S[NMeY][dK](Shikimoyl)[NMeL]RP[dA]-NH2), the Kb was 9.12 pM.
`CC(C)C[C@H](NC(=O)[C@@H](CCCCNC(=O)C1=C[C@@H](O)[C@@H](O)[C@H](O)C1)NC(=O)[C@H](Cc1ccc(O)cc1)N(C)C(=O)[C@H](CO)NC(=O)[C@@H](Cc1cccnc1)NC(=O)[C@@H](Cc1ccc(Cl)cc1)NC(=O)[C@@H](Cc1ccc2ccccc2c1)NC(=O)CNC(=O)C1=C[C@@H](O)[C@@H](O)[C@H](O)C1)C(=O)N[C@@H](CCCNC(=N)N)C(=O)N1CC[C@H]1C(=O)N[C@H](C)C(N)=O` [Example 19, N-Shikimyl-Gly-D2Nal-D4ClPhe-D3Pal-Ser-NMeTyr-DLys(Shik)-Leu-Arg-Aze-DAlaNH2] (Shikimoyl-G[d2Nal][dPhe(4-Cl)][d3Pal]S[NMeY][dK](Shikimoyl)LR[Aze][dA]-NH2) showed a Kb of 40.7 pM.
`CC(C)C[C@H](NC(=O)[C@@H](CCCCNC(=O)CNC(=O)CNC(=O)c1cccnc1)NC(=O)[C@H](Cc1ccc(O)cc1)N(C)C(=O)[C@H](CO)NC(=O)[C@@H](Cc1cccnc1)NC(=O)[C@@H](Cc1ccc(Cl)cc1)NC(=O)[C@@H](Cc1ccc2ccccc2c1)NC(=O)CNC(=O)C1=C[C@@H](O)[C@@H](O)[C@H](O)C1)C(=O)N[C@@H](CCCNC(=N)N)C(=O)N1CCC[C@H]1C(=O)N[C@H](C)C(N)=O` [Example 20, N-Shikimyl-Gly-D2Nal-D4ClPhe-D3Pal-Ser-NMeTyr-DLys(GlyGlyNic)-Leu-Arg-Pro-DAlaNH2] (Shikimoyl-G[d2Nal][dPhe(4-Cl)][d3Pal]S[NMeY][dK]([Gly-Gly-Nicotinoyl])LRP[dA]-NH2) showed a Kb of 26.3 pM.
`CC(C)C[C@H](NC(=O)[C@@H](CCCCNC(=O)CNC(=O)[C@@H](O)[C@@H](O)[C@H](O)[C@@H](O)CO)NC(=O)[C@H](Cc1ccc(O)cc1)N(C)C(=O)[C@H](CO)NC(=O)[C@@H](Cc1cccnc1)NC(=O)[C@@H](Cc1ccc(Cl)cc1)NC(=O)[C@@H](Cc1ccc2ccccc2c1)NC(=O)CNC(=O)[C@@H](O)[C@@H](O)[C@H](O)[C@@H](O)CO)C(=O)N[C@@H](CCCNC(=N)N)C(=O)N1CCC[C@H]1C(=O)N[C@H](C)C(N)=O` [Example 21, N-(L-Gulonyl)-Gly-D2Nal-D4ClPhe-D3Pal-Ser-NMeTyr-DLys(Gly-L-Gulonyl)-Leu-Arg-Pro-DAlaNH2] (X4-G[d2Nal][dPhe(4-Cl)][d3Pal]S[NMeY][dK]([Gly-X4])LRP[dA]-NH2) gave a Kb of 31.6 pM.
`CC(C)C[C@H](NC(=O)[C@@H](CCCCNC(=O)CNC(=O)C1=C[C@@H](O)[C@@H](O)[C@H](O)C1)NC(=O)[C@H](Cc1ccc(O)cc1)N(C)C(=O)[C@H](CO)NC(=O)[C@@H](Cc1cccnc1)NC(=O)[C@@H](Cc1ccc(Cl)cc1)NC(=O)[C@@H](Cc1ccc2ccccc2c1)NC(=O)CNC(=O)c1cccnc1)C(=O)N[C@@H](CCCNC(=N)N)C(=O)N1CCC[C@H]1C(=O)N[C@H](C)C(N)=O` [Example 22, N-Nicotinyl-Gly-D2Nal-D4ClPhe-D3Pal-Ser-NMeTyr-DLys(Gly-Shik)-Leu-Arg-Pro-DAlaNH2] (Nicotinoyl-G[d2Nal][dPhe(4-Cl)][d3Pal]S[NMeY][dK]([Gly-Shikimoyl])LRP[dA]-NH2) showed a Kb of 3.39 pM.
With `CC[C@H](C)[C@H](NC(=O)[C@@H](CCCCNC(=O)C1=C[C@@H](O)[C@@H](O)[C@H](O)C1)NC(=O)[C@H](Cc1ccc(O)cc1)N(C)C(=O)[C@H](CO)NC(=O)[C@@H](Cc1cccnc1)NC(=O)[C@@H](Cc1ccc(Cl)cc1)NC(=O)[C@@H](Cc1ccc2ccccc2c1)NC(=O)CNC(=O)c1cccnc1)C(=O)N[C@@H](CCCNC(=N)N)C(=O)N1CCC[C@H]1C(=O)N[C@H](C)C(N)=O` [Example 23a, N-Nicotinyl-Gly-D2Nal-D4ClPhe-D3Pal-Ser-NMeTyr-DLys(Shik)-Ile-Arg-Pro-DAlaNH2] (Nicotinoyl-G[d2Nal][dPhe(4-Cl)][d3Pal]S[NMeY][dK](Shikimoyl)IRP[dA]-NH2) the Kb was 19.5 pM.
Work on `CC(C)C[C@@H](C(=O)N[C@@H](CCCNC(=N)N)C(=O)N1CCC[C@H]1C(=O)N[C@H](C)C(N)=O)N(C)C(=O)[C@@H](CCCCNC(=O)C1=C[C@@H](O)[C@@H](O)[C@H](O)C1)NC(=O)[C@H](Cc1ccc(O)cc1)N(C)C(=O)[C@H](CO)NC(=O)[C@@H](Cc1cccnc1)NC(=O)[C@@H](Cc1ccc(Cl)cc1)NC(=O)[C@@H](Cc1ccc2ccccc2c1)NC(=O)CNC(=O)c1cccnc1` [Example 23b, N-Nicotinyl-Gly-D2Nal-D4ClPhe-D3Pal-Ser-NMeTyr-DLys(Shikimyl)-NMeLeu-Arg-Pro-DAlaNH2] (Nicotinoyl-G[d2Nal][dPhe(4-Cl)][d3Pal]S[NMeY][dK](Shikimoyl)[NMeL]RP[dA]-NH2) yielded a Kb of 18.6 pM.
`CC(C)C[C@H](NC(=O)[C@@H](CCCCNC(=O)C1=C[C@@H](O)[C@@H](O)[C@H](O)C1)NC(=O)[C@H](Cc1ccc(O)cc1)N(C)C(=O)[C@H](CO)NC(=O)[C@@H](Cc1cccnc1)NC(=O)[C@@H](Cc1ccc(Cl)cc1)NC(=O)[C@@H](Cc1ccc2ccccc2c1)NC(=O)CNC(=O)c1cccnc1)C(=O)N[C@@H](CCCNC(=N)N)C(=O)N1CC[C@H]1C(=O)N[C@H](C)C(N)=O` [Example 24, N-Nicotinyl-Gly-D2Nal-D4ClPhe-D3Pal-Ser-NMeTyr-DLys(Shikimyl)-Leu-Arg-Aze-DAlaNH2] (Nicotinoyl-G[d2Nal][dPhe(4-Cl)][d3Pal]S[NMeY][dK](Shikimoyl)LR[Aze][dA]-NH2) gave a Kb of 28.2 pM.
`CC(C)C[C@H](NC(=O)[C@@H](CCCCNC(=O)C1=C[C@@H](O)[C@@H](O)[C@H](O)C1)NC(=O)[C@H](Cc1ccc(O)cc1)N(C)C(=O)[C@H](CO)NC(=O)[C@@H](Cc1cccnc1)NC(=O)[C@@H](Cc1ccc(Cl)cc1)NC(=O)[C@@H](Cc1ccc2ccccc2c1)NC(=O)CNC(=O)c1cccnc1)C(=O)N[C@@H](CCCCNC(=N)N)C(=O)N1CCC[C@H]1C(=O)N[C@H](C)C(N)=O` [Example 25a, N-Nicotinyl-Gly-D2Nal-D4ClPhe-D3Pal-Ser-NMeTyr-DLys(Shik)-Leu-Harg-Pro-DAlaNH2] (Nicotinoyl-G[d2Nal][dPhe(4-Cl)][d3Pal]S[NMeY][dK](Shikimoyl)L[hArg]P[dA]-NH2) was tested, and the Kb was 14.1 pM.
For `CC(C)C[C@H](NC(=O)[C@@H](CCCCNC(=O)C1=C[C@@H](O)[C@@H](O)[C@H](O)C1)NC(=O)[C@H](Cc1ccc(O)cc1)N(C)C(=O)[C@H](CO)NC(=O)[C@@H](Cc1cccnc1)NC(=O)[C@@H](Cc1ccc(Cl)cc1)NC(=O)[C@@H](Cc1ccc2ccccc2c1)NC(=O)[C@@H](CO)NC(=O)c1cccnc1)C(=O)N[C@@H](CCCCNC(=N)N)C(=O)N1CCC[C@H]1C(=O)N[C@H](C)C(N)=O` [Example 25b, N-Nicotinyl-DSer-D2Nal-D4ClPhe-D3Pal-Ser-NMeTyr-DLys(Shikimyl)-Leu-Harg-Pro-DAlaNH2] (Nicotinoyl-[dS][d2Nal][dPhe(4-Cl)][d3Pal]S[NMeY][dK](Shikimoyl)L[hArg]P[dA]-NH2), the Kb was 7.94 pM.
